Source: publication PMC10907374, “G2019S selective LRRK2 kinase inhibitor abrogates mitochondrial DNA damage” (NPJ Parkinson's Disease, 2024)
“And” between values parts separate entries of the source, which are not always exact repeats. Equal values may be shown once. “Also recorded” adds a separate entry of the source.

Assays:
human LRRK2 (WT-LRRK2) = biological target: T1, human LRRK2 (WT-LRRK2) (Homo sapiens, UniProt Q5S007); test: LRRK2 pSer935 quantitative western immunoblot in HEK293 cells stably overexpressing WT-LRRK2; assay type: cell-based
T1 construct: WT-LRRK2 or G2019S-LRRK2 overexpressing cells show expression of LRRK2 pSer1292 and full-length LRRK2; expressed in transfected cells
Procedure: (§1) Cells were plated at a density of 0.3 × 10^6 cells in a 6-well dish and treated at ~40–50% confluency. At the time of harvest, cells were collected and either protein collected or DNA extracted as described below.
(§2) For LRRK2-WT or G2019S-LRRK2, ~1.5 million cells were pelleted and resuspended in 75 μl of lysis buffer [(RIPA Buffer (Sigma-Aldrich, R0278-50ML), protease inhibitor cocktail (Sigma-Aldrich, P8340), and Halt phosphatase inhibitor cocktail (Thermo Fisher, 78420)]. For LCLs, five million cells were pelleted and resuspended in 100 µl of lysis buffer. For both types of cells lysates were centrifuged at 10,000 × g after a 10 min incubation on ice, and the supernatant was collected. Protein was quantified using the DC protein assay (Bio-Rad, 5000112). In total, 50 μg of protein was loaded for HEK293 LRRK2-WT or G2019S-LRRK2 cells. Due to the differing endogenous LRRK2 levels, 40 µg of ND02559, 60 µg of ND00264, or 100 µg of ND00011 and ND01618 of protein sample was loaded. Protein samples were incubated at 100 °C for 5 min with NuPAGE Sample loading dye (Thermo Fisher, NP0007) and dithiothreitol as reducing agent. […] Fluorescence intensities were quantified using ImageStudio Lite software (LI-COR), and the signal from the protein of interest was normalized to the fluorescence intensity of either LRRK2 or β-actin. […]

[1] = biological target: T2, G2019S variant of human LRRK2 (G2019S-LRRK2) (Homo sapiens, UniProt Q5S007, G2019S); test: LRRK2 pSer1292 autophosphorylation western immunoblot in HEK293 cells stably overexpressing G2019S-LRRK2; assay type: cell-based; settings: for decrease in LRRK2 pSer1292 levels: G2019S-LRRK2 cells, 2 h
T2 construct: WT-LRRK2 or G2019S-LRRK2 overexpressing cells show expression of LRRK2 pSer1292 and full-length LRRK2; expressed in transfected cells
T2 sequence (Q5S007 whole entry G2019S): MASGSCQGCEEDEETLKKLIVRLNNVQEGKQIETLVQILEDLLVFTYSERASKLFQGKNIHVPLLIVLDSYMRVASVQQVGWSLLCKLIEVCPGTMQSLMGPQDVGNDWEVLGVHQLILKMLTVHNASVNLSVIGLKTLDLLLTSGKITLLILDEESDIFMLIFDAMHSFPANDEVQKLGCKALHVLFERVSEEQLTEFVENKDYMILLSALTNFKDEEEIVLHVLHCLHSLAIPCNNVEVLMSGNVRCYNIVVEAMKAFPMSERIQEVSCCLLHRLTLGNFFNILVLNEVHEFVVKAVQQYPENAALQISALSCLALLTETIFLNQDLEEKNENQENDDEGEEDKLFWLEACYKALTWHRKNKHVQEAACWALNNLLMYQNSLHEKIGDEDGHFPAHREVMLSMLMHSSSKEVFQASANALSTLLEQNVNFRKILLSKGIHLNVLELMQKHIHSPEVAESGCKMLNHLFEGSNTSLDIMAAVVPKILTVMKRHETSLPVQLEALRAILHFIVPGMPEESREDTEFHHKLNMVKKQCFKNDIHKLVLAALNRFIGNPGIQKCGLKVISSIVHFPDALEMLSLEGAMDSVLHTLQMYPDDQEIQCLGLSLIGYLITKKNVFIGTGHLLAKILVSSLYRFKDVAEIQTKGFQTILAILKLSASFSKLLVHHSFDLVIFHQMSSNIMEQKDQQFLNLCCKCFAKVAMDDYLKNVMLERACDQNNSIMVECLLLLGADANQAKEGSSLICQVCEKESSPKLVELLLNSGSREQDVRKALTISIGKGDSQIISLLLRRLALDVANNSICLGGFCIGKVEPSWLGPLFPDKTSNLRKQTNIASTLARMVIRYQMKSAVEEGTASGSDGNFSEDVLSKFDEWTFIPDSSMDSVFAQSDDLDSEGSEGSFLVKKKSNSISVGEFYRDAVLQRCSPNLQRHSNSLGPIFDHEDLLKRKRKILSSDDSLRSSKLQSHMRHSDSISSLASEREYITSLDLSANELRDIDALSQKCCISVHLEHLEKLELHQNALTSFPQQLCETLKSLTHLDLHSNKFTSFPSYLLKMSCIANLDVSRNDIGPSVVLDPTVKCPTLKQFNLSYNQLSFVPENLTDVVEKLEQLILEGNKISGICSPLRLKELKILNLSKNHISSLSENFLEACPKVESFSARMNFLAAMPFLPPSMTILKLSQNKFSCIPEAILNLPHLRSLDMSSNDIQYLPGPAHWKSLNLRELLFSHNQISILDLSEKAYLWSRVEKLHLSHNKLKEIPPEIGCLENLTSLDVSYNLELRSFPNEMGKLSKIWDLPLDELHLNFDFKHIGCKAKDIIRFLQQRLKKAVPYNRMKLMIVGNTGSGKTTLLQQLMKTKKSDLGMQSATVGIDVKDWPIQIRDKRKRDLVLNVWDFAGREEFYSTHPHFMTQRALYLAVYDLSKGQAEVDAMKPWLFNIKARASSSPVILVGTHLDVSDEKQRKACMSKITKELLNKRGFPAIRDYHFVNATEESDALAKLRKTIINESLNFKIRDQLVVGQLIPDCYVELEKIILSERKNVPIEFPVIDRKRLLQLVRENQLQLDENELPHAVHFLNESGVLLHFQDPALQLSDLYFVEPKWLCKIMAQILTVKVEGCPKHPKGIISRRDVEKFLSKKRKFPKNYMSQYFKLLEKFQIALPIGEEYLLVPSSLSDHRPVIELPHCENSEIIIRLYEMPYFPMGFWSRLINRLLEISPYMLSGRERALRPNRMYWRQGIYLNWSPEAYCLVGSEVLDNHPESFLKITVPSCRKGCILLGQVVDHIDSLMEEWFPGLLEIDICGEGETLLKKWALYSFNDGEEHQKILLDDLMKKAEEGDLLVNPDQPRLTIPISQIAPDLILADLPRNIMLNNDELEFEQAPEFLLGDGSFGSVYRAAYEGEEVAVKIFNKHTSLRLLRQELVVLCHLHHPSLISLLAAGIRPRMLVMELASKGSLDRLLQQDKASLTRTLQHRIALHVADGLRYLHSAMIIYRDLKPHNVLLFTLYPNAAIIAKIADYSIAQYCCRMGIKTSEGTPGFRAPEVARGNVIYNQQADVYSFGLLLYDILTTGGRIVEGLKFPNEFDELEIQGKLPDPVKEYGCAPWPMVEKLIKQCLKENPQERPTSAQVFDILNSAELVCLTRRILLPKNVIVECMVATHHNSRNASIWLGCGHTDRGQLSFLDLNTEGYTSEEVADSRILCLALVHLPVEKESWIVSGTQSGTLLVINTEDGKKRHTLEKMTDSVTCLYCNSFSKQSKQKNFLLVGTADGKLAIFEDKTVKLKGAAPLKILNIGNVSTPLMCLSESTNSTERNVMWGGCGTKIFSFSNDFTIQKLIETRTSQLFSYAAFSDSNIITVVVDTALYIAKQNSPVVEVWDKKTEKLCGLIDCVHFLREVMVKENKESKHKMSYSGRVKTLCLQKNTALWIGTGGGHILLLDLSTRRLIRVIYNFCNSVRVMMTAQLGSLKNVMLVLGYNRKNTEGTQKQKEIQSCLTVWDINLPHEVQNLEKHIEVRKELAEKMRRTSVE
Procedure: as §1
For LRRK2-WT or G2019S-LRRK2, ~1.5 million cells were pelleted and resuspended in 75 μl of lysis buffer [(RIPA Buffer (Sigma-Aldrich, R0278-50ML), protease inhibitor cocktail (Sigma-Aldrich, P8340), and Halt phosphatase inhibitor cocktail (Thermo Fisher, 78420)]. For LCLs, five million cells were pelleted and resuspended in 100 µl of lysis buffer. For both types of cells lysates were centrifuged at 10,000 × g after a 10 min incubation on ice, and the supernatant was collected. Protein was quantified using the DC protein assay (Bio-Rad, 5000112). In total, 50 μg of protein was loaded for HEK293 LRRK2-WT or G2019S-LRRK2 cells. Due to the differing endogenous LRRK2 levels, 40 µg of ND02559, 60 µg of ND00264, or 100 µg of ND00011 and ND01618 of protein sample was loaded. Protein samples were incubated at 100 °C for 5 min with NuPAGE Sample loading dye (Thermo Fisher, NP0007) and dithiothreitol as reducing agent. After 4–20% SDS-PAGE, the blots were blocked in 5% w/v nonfat dry milk in 1X PBST (0.05% Tween 20). For our investigations, the following primary antibodies were used: mouse anti-LRRK2 N241a (Antibodies INC, 75-253, 1:5000 for HEK293 cells and 1:2000 for LCLs), rabbit anti-LRRK2 pS935 (Abcam, ab133450, 1:10,000 for HEK293 cells and 1:2000 for LCLs), mouse anti-β-actin (Novus, 8H10D10, 1:10,000), and rabbit anti-LRRK2 pS1292 (Abcam, ab203181, 1:500). The blots were then probed with fluorescent-labeled secondary antibodies, IRDye donkey anti-mouse and anti-rabbit at 1:10,000 (LI-COR, 926-32212, 926-68072), and scanned using an Odyssey Imaging scanner (LI-COR). Fluorescence intensities were quantified using ImageStudio Lite software (LI-COR), and the signal from the protein of interest was normalized to the fluorescence intensity of either LRRK2 or β-actin. Values were averaged from at least three technical replicates within a cell line, or two biological replicates (two healthy control lines and two PD LCLs). All blots were derived from the same experiment and processed in parallel.

[2] = biological target: T3, LRRK2 in healthy control lymphoblastoid cells (LCLs) (Homo sapiens, UniProt Q5S007); test: LRRK2 pSer935 western immunoblot in healthy control-derived LCLs; assay type: cell-based; settings: 10 and 100 nM, 2 h
T3 construct: Due to the differing endogenous LRRK2 levels; host or cells: healthy subject control-derived lymphoblastoid cell lines (n = 2)
T3 sequence (Q5S007 whole entry): as the sequence (Q5S007 whole entry G2019S) above, with S2019G counted along it
Procedure: PD patient G2019S LRRK2 (n = 2) and healthy subject control (n = 2)-derived LCLs were obtained from the NINDS Coriell biorepository (ID numbers are ND00011, ND00264, ND01618, ND02559). […] LCLs were cultured at 37 °C, 5% CO2, in RPMI-1640 (Sigma-Aldrich, R8758), 15% heat-inactivated fetal bovine serum (VWR Seradigm, 97068-091) and 0.5% Penicillin/Streptomycin (Corning, 30-002-CI). […] All in vitro experiments were repeated at least three times from distinct samples.
as §2, with “cells.” for “cells. Due to the differing endogenous LRRK2 levels, 40 µg of ND02559, 60 µg of ND00264, or 100 µg of ND00011 and ND01618 of protein sample was loaded. Protein samples were incubated at 100 °C for 5 min with NuPAGE Sample loading dye (Thermo Fisher, NP0007) and dithiothreitol as reducing agent.”

[3] = design: method as in PMID 33197196; settings: cited from earlier work
[4] = tested on: heterozygous G2019S LRRK2 PD patient-derived LCLs; design: method as in PMID 33057100; settings: acute treatment (1.5 h) ref 49; cited from earlier work

IC50 (human LRRK2 (WT-LRRK2); WT LRRK2 HEK293 cell line, 2 h treatment, 10 nM-1 μM titration, read-out: calculated half-maximal inhibition (IC50) of LRRK2 pSer935) [µM] | IC50 ([1]; G2019S-LRRK2 HEK293 cells, 2 h treatment, read-out: calculated IC50 of LRRK2 pSer1292) [µM] | decrease in LRRK2 pSer1292 levels ([1]; 10 nM) [%] | decrease in LRRK2 pSer1292 levels ([1]; 10 nM, listed as EB-42618) | decrease in LRRK2 pSer1292 levels ([1]; 100 nM) | Structure (SMILES) | effect on LRRK2 pSer935 over the concentration range (in words) (human LRRK2 (WT-LRRK2); WT-LRRK2 cells, 10 nM up to 1 μM, 2 h) | effect on LRRK2 pSer935 (in words) [2] | brain penetration [3] | mtDNA damage [4]
> 5 | 0.044 | 30 | dephosphorylated | ~ 70% and 65% | CC1=C(C(=O)Nc2ccc3[nH]nc(-c4ccnc(N5CCOCC5)c4)c3c2)C(C)(C)n2nnnc2N1C [EB-42168] | no inhibition; also recorded: no change; also recorded: no detectable effect | did not impact; also recorded: no change; also recorded: without a change | poorly brain penetrant | 
 |  |  |  |  | C[C@@H]1CN(c2cc(-c3n[nH]c4ccc(OC5(C)CC5)cc34)ncn2)C[C@H](C)O1 [MLi-2, reference compound] |  |  |  | restored mtDNA damage to healthy control levels
